Results on two compounds are retold here after patent US11692160B2, “Microfluidic chip, three-dimensional channel structure, cell culture method using same, and activity evaluation method of bioactive substance using same” (THE ASAN FOUNDATION, priority 2016, dated 2023).

One test concerns lung cancer cells (A549). In words: Evaluation of the pharmacological efficacy of an MMP-1 inhibitor using a microfluidic chip (lung cancer cell travel distance, vascular cell migration area). The format is cell-based. The method, then: In order to evaluate the efficacy of an anticancer medicine using a microfluidic chip, lung cancer cells (A549, ATCC) were seeded into a microfluidic chip using the same method as in Example 1. Secondarily, vascular cells were seeded (day 0).

Test [1] relates to pancreatic cancer cells (Mia Paca-2). In words: Evaluation of the pharmacological efficacy of gemcitabine using a microfluidic chip (spread range of cancer cells). In kind it is cell-based. As for the experimental part:
In order to evaluate the efficacy of an anticancer medicine using a microfluidic chip, pancreatic cancer cells (Mia Paca-2, ATCC) were seeded into a microfluidic chip using the same method as in Example 2. Secondarily, vascular cells (HUVEC, purchased from ATCC) were seeded. Once the cells were confirmed to be attached (day 0: cell seeding date), gemcitabine (Eli Lilly and Company, USA) was administered 3 days later to measure the spread range of the cancer cells. As shown in FIGS. 20A to 20C, the growth and development of cells were observed from the time of cell seeding (day 0) to the 7th day after the drug treatment (day 3). For observation of the cells, an optical microscope image (EVOS, LifeScience, 100 magnification) and a fluorescence microscope image (EVOS, LifeScience, 100 magnification) were superposed. FIGS. 20B and 20C show the results of observation of the cell development using an optical microscope and a fluorescence microscope. The eight images of FIG. 20B, labeled as normal cultures, were those treated with DMSO at day 3 and observed up to day 7. The eight pictures of FIG. 20C, labeled drug treatment, were those treated with gemcitabine on day 3 and observed up to day 7. FIG. 20A is a graph in which the growth width of the cancer cells was statistically quantified from FIGS. 20B and 20C using an Origin […] […]

Setting [2] is: A549 with vascular cells in microfluidic chip, inhibitor given 1 day after seeding, increasing concentration (10 μM, 50 μM, 100 μM).

Each structure is given as a SMILES string.

On to `CNC(=O)[C@H](Cc1c[nH]c2ccccc12)NC(=O)[C@@H](CC(=O)NO)CC(C)C` [MMP-1 inhibitor], for which the “metastatic process of lung cancer cells” value with lung cancer cells (A549) (A549 cultured in the cell culture device (microfluidic chip)) was “inhibits the metastatic process of lung cancer cells”. For the same compound, in the test with lung cancer cells (A549) (setting [2]), the “migration area of the vascular cells” value is “reduced” and the “travel distance of the lung cancer cells” value is on record as “gradually reduced”.
Take `Nc1ccn([C@@H]2O[C@H](CO)[C@@H](O)C2(F)F)c(=O)n1` [gemcitabine, 4-amino-1-(2-deoxy-2,2-difluoro-β-D-erythro-pentofuranosyl)pyrimidin-2(1H)-on]: the “distribution area of the cancer cells” value in test [1] (Mia Paca-2 co-seeded with HUVEC in microfluidic chip, drug on day 3, observed up to day 7, compared with cells not treated with gemcitabine (DMSO)) was “decreased”. Besides, the “growth of pancreatic cancer cells” value in test [1] (Mia Paca-2 in microfluidic chip, gemcitabine on day 3, observed up to day 7) was “inhibits the growth of pancreatic cancer cells”.
